In one assay the target is P-S213 AR (Homo sapiens, UniProt P10275). The settings on record: 293 cells, wild type AR, treated with R1881; FIG. 3B.
The next assay has as its target T1, AR S213 phosphorylation (Homo sapiens, UniProt P10275).
T1 sequence (P10275 1-920): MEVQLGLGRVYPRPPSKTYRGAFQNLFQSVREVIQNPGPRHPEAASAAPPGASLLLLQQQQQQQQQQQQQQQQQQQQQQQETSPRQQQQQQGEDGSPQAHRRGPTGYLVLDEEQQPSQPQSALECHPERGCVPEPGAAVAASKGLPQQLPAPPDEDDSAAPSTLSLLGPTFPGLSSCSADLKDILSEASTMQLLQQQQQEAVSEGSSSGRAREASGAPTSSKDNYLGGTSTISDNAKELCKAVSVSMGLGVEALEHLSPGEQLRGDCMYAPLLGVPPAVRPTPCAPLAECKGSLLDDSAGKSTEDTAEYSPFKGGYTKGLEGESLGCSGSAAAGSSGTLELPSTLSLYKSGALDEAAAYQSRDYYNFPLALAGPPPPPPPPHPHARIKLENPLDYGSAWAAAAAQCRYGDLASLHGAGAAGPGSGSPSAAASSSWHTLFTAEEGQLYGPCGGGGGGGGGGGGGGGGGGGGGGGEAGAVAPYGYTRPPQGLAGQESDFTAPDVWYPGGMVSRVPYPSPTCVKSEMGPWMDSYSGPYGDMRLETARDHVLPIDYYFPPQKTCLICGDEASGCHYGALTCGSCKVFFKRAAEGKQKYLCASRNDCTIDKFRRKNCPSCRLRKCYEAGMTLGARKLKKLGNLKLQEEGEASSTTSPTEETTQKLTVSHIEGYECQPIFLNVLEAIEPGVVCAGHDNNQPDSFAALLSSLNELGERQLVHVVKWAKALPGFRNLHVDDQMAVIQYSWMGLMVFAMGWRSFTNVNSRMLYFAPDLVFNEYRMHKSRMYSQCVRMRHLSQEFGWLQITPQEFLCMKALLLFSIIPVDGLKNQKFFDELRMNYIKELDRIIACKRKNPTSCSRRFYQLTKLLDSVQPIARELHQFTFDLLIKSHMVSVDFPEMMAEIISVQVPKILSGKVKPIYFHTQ
Put plainly: Immunoblot of AR S213 phosphorylation in 293 cells transfected with wild type AR. Format: cell-based.

The test system of another assay is phospho-MAPK (P-MAPK). Put plainly: Immunoblot of phospho-MAPK in transfected 293 cells. It is filed as cell-based, human. The settings on record: 293 cells treated with IGF-1; FIG. 4B. For orientation: A western blot detects proteins with antibodies after separation by electrophoresis.

Procedure for P-S213 AR: Preparation of nuclear and cytoplasmic lysates: Nuclear and cytoplasmic lysates were prepared according to (Lee et al., 1988). Cells (1×10^6 cells) were collected by centrifugation, swelled in a hypotonic buffer, and lysed by extruding the cells through a 25-gauge hypodermic needle. This homogenate was then centrifuged at 14,000 rpm for 5 min to pellet the nuclei, and the supernatant was saved as the cytoplasmic fraction. The proteins were extracted by re-suspension of the nuclear pellet in a high salt buffer and separation of debris by centrifugation. The resulting supernatant was retained as the nuclear fraction.
To assess the subcellular localization of AR-P-S213, fractionation studies were conducted in the presence of R1881.

As to `C[C@]1(O)CC[C@H]2[C@@H]3CCC4=CC(=O)CCC4=C3C=C[C@@]21C` [R1881], at P-S213 AR, the “Sub-cellular localization of P-S213 AR” value was “predominantly nuclear”. Also, at AR S213 phosphorylation, the “AR S213 phosphorylation at 10 nM” value was “robust phosphorylation”; the “AR S213 phosphorylation at lower levels” value is given as “not at lower levels”; the “AR S213 phosphorylation, compound alone” value is “phosphorylated”; the “AR phosphorylation by hormone” value was “robust AR phosphorylation”. Moreover, at AR S213 phosphorylation, the “Earliest time at which phosphorylation may occur” value is no less than 10 min and the “Time at which phosphorylation above background is obvious” value was determined as 60 min.

As to “IGF-1: growth factor used to treat 293 cells; phosphorylates MAPK”, the MAPK phosphorylation entry in the assay with phospho-MAPK (P-MAPK) is reported as “phosphorylated”. The “AR phosphorylation with IGF-1 alone” value with AR S213 phosphorylation (293 cells, IGF-1 alone 5 or 10 minutes or 2 hours, absence of R1881, FIG. 4B) is on record as “does not result in AR phosphorylation”.
